# Assay results as given in ChEMBL document CHEMBL1154782, “Discovery of Trp-His and His-Arg analogues as new structural classes of short antimicrobial peptides” (J Med Chem, 2009).
# Where a SMILES comes first, the peptide text is derived from it. The star is where a group is joined. Boc = CC(C)(C)OC(=O)*; NHBn = c1ccc(CN*)cc1
# Legend:
# [1] = tested on: Staphylococcus aureus; assay: Antibacterial activity against methicillin-resistant Staphylococcus aureus DSM 50128509; format: functional, organism-based
# [2] = tested on: Candida albicans; assay: Antifungal activity against Candida albicans ATCC 10231 after 15 to 18 hrs under aerobic condition by modified broth microdilution method; format: functional
# [3] = tested on: Klebsiella pneumoniae; assay: Antibacterial activity against Klebsiella pneumoniae ATCC 700603 after 15 to 18 hrs under aerobic condition by modified broth microdilution method; format: functional
# [4] = tested on: Candida albicans; assay: Antifungal activity against Candida albicans ATCC 10231; format: functional, organism-based
# [5] = tested on: Escherichia coli; assay: Antibacterial activity against Escherichia coli ATCC 35218 after 15 to 18 hrs under aerobic condition by modified broth microdilution method; format: functional
# [6] = tested on: Staphylococcus epidermidis; assay: Antibacterial activity against methicillin-resistant Staphylococcus epidermidis DSM 50160384; format: functional, organism-based
# [7] = tested on: Pseudomonas aeruginosa; assay: Antibacterial activity against Pseudomonas aeruginosa ATCC 9027 after 15 to 18 hrs under aerobic condition by modified broth microdilution method; format: functional
# [8] = tested on: Staphylococcus aureus; assay: Antibacterial activity against methicillin-resistant Staphylococcus aureus DSM 50128509 after 15 to 18 hrs under aerobic condition by modified broth microdilution method; format: functional
# [9] = tested on: Staphylococcus epidermidis; assay: Antibacterial activity against methicillin-resistant Staphylococcus epidermidis DSM 50160384 after 15 to 18 hrs under aerobic condition by modified broth microdilution method; format: functional
# [10] = tested on: L929; assay: Cytotoxicity against mouse L929 cells up to 200 ug/mL after 5 days by MTT assay; format: cell-based; conditions: l929, 120 h
structure (smiles),measurement,setting,value
COC(=O)[C@H](CCCNC(=N)N)NC(=O)[C@H](Cc1c[nH]c(C(C)C)n1)NC(=O)OC(C)(C)C,IC50,[1],12.4 µg/mL
same,MIC,[2],200 µg/mL
same,MIC,[3],> 200 µg/mL
same,IC50,[4],20.9 µg/mL
same,MIC,[5],> 200 µg/mL
same,IC50,[6],13.1 µg/mL
same,MIC,[7],> 200 µg/mL
same,MIC,[8],200 µg/mL
same,MIC,[9],200 µg/mL
same,Activity,[10],Non-toxic
CC(C)(C)c1nc(C[C@H](N)C(=O)N[C@@H](CCCNC(=N)N)C(=O)NCc2ccccc2)c[nH]1,IC50,[1],4.18 µg/mL
same,MIC,[2],> 200 µg/mL
same,MIC,[3],> 200 µg/mL
same,MIC,[5],> 200 µg/mL
same,IC50,[6],3.13 µg/mL
same,MIC,[7],> 200 µg/mL
same,MIC,[8],20 µg/mL
same,MIC,[9],10 µg/mL
same,Activity,[10],Non-toxic
C[C@@H]1[C@H](O)[C@@H](C)/C=C/C=C/C=C/C=C/C=C/C=C/C=C/[C@H](O[C@@H]2O[C@H](C)[C@@H](O)[C@H](N)[C@@H]2O)C[C@@H]2O[C@](O)(C[C@@H](O)C[C@@H](O)[C@H](O)CC[C@@H](O)C[C@@H](O)CC(=O)O[C@H]1C)C[C@H](O)[C@H]2C(=O)O [AMPHOTERICIN B],IC50,[4],0.34 µg/mL
COC(=O)[C@H](CCCNC(=N)N)NC(=O)[C@H](Cc1c[nH]cn1)NC(=O)OC(C)(C)C (Boc-His-Arg-OMe),MIC,[2],> 200 µg/mL
same,MIC,[3],> 200 µg/mL
same,MIC,[5],> 200 µg/mL
same,IC50,[6],5.07 µg/mL
same,MIC,[7],> 200 µg/mL
same,MIC,[8],> 200 µg/mL
same,MIC,[9],100 µg/mL
same,Activity,[10],Non-toxic
CC(C)(C)OC(=O)N[C@@H](Cc1c[nH]c2ccccc12)C(=O)N[C@@H](Cc1c[nH]c(C2CCCCC2)n1)C(=O)NCc1ccccc1,IC50,[1],31.7 µg/mL
same,MIC,[2],> 200 µg/mL
same,MIC,[3],> 200 µg/mL
same,MIC,[5],> 200 µg/mL
same,IC50,[6],23.8 µg/mL
same,MIC,[7],> 200 µg/mL
same,MIC,[8],200 µg/mL
same,MIC,[9],200 µg/mL
same,Activity,[10],Non-toxic
CC(C)(C)OC(=O)N[C@@H](Cc1c[nH]c2ccccc12)C(=O)N[C@@H](Cc1c[nH]c(C(C)(C)C)n1)C(=O)NCc1ccccc1,MIC,[2],> 200 µg/mL
same,MIC,[3],> 200 µg/mL
same,MIC,[5],> 200 µg/mL
same,MIC,[7],> 200 µg/mL
same,MIC,[8],> 200 µg/mL
same,MIC,[9],> 200 µg/mL
same,Activity,[10],Non-toxic
COC(=O)[C@H](Cc1c[nH]c(C(C)C)n1)NC(=O)[C@H](Cc1c[nH]c2ccccc12)NC(=O)OC(C)(C)C,MIC,[2],> 200 µg/mL
same,MIC,[3],> 200 µg/mL
same,MIC,[5],> 200 µg/mL
same,MIC,[7],> 200 µg/mL
same,MIC,[8],> 200 µg/mL
same,MIC,[9],> 200 µg/mL
same,Activity,[10],Non-toxic
COC(=O)[C@H](Cc1c[nH]cn1)NC(=O)[C@H](Cc1c[nH]c2ccccc12)NC(=O)OC(C)(C)C (Boc-Trp-His-OMe),IC50,[1],16.4 µg/mL
same,MIC,[2],200 µg/mL
same,MIC,[3],> 200 µg/mL
same,IC50,[4],31.4 µg/mL
same,MIC,[5],> 200 µg/mL
same,MIC,[7],> 200 µg/mL
same,MIC,[8],200 µg/mL
same,MIC,[9],> 200 µg/mL
same,Activity,[10],Non-toxic
CC(C)(C)OC(=O)N[C@@H](Cc1c[nH]c(C2CCCCC2)n1)C(=O)N[C@@H](CCCNC(=N)N)C(=O)NCc1ccccc1,IC50,[1],12.1 µg/mL
same,MIC,[2],> 200 µg/mL
same,MIC,[3],> 200 µg/mL
same,MIC,[5],200 µg/mL
same,IC50,[6],18.4 µg/mL
same,MIC,[7],> 200 µg/mL
same,MIC,[8],100 µg/mL
same,MIC,[9],100 µg/mL
same,Activity,[10],Non-toxic
CC(C)(C)OC(=O)N[C@@H](Cc1c[nH]c2ccccc12)C(=O)N[C@@H](Cc1c[nH]c(C2CCC2)n1)C(=O)NCc1ccccc1,IC50,[1],22.4 µg/mL
same,MIC,[2],200 µg/mL
same,MIC,[3],> 200 µg/mL
same,IC50,[4],33.2 µg/mL
same,MIC,[5],> 200 µg/mL
same,MIC,[7],> 200 µg/mL
same,MIC,[8],200 µg/mL
same,MIC,[9],> 200 µg/mL
same,Activity,[10],Non-toxic
CC(C)(C)c1nc(C[C@H](NC(=O)[C@@H](N)Cc2c[nH]c3ccccc23)C(=O)NCc2ccccc2)c[nH]1,MIC,[2],> 200 µg/mL
same,MIC,[3],> 200 µg/mL
same,MIC,[5],> 200 µg/mL
same,IC50,[6],9.24 µg/mL
same,MIC,[7],> 200 µg/mL
same,MIC,[8],> 200 µg/mL
same,MIC,[9],100 µg/mL
same,Activity,[10],Non-toxic
N=C(N)NCCC[C@H](NC(=O)[C@@H](N)Cc1c[nH]c(C2CCC2)n1)C(=O)NCc1ccccc1,IC50,[1],6.99 µg/mL
same,MIC,[2],100 µg/mL
same,MIC,[3],> 200 µg/mL
same,IC50,[4],9.95 µg/mL
same,MIC,[5],> 200 µg/mL
same,IC50,[6],3.94 µg/mL
same,MIC,[7],> 200 µg/mL
same,MIC,[8],50 µg/mL
same,MIC,[9],50 µg/mL
same,Activity,[10],Non-toxic
N[C@@H](Cc1c[nH]c2ccccc12)C(=O)N[C@@H](Cc1c[nH]cn1)C(=O)NCc1ccccc1 (H-Trp-His-NHBn),IC50,[1],12.3 µg/mL
same,MIC,[2],200 µg/mL
same,MIC,[3],> 200 µg/mL
same,IC50,[4],15.2 µg/mL
same,MIC,[5],> 200 µg/mL
same,IC50,[6],29 µg/mL
same,MIC,[7],> 200 µg/mL
same,MIC,[8],200 µg/mL
same,MIC,[9],200 µg/mL
same,Activity,[10],Non-toxic
N=C(N)NCCC[C@H](NC(=O)[C@@H](N)Cc1c[nH]cn1)C(=O)NCc1ccccc1 (H-His-Arg-NHBn),IC50,[1],7.04 µg/mL
same,MIC,[2],200 µg/mL
same,MIC,[3],> 200 µg/mL
same,IC50,[4],16.6 µg/mL
same,MIC,[5],> 200 µg/mL
same,IC50,[6],8.07 µg/mL
same,MIC,[7],> 200 µg/mL
same,MIC,[8],100 µg/mL
same,MIC,[9],100 µg/mL
same,Activity,[10],Non-toxic
CC(C)(C)OC(=O)N[C@@H](Cc1c[nH]cn1)C(=O)N[C@@H](CCCNC(=N)N)C(=O)NCc1ccccc1 (Boc-His-Arg-NHBn),MIC,[2],> 200 µg/mL
same,MIC,[3],> 200 µg/mL
same,MIC,[5],> 200 µg/mL
same,IC50,[6],8.79 µg/mL
same,MIC,[7],> 200 µg/mL
same,MIC,[8],> 200 µg/mL
same,MIC,[9],100 µg/mL
same,Activity,[10],Non-toxic
CC(C)c1nc(C[C@H](NC(=O)[C@H](Cc2c[nH]c3ccccc23)NC(=O)OC(C)(C)C)C(=O)NCc2ccccc2)c[nH]1,IC50,[1],10.3 µg/mL
same,MIC,[2],> 200 µg/mL
same,MIC,[3],> 200 µg/mL
same,MIC,[5],> 200 µg/mL
same,MIC,[7],> 200 µg/mL
same,MIC,[8],200 µg/mL
same,MIC,[9],> 200 µg/mL
same,Activity,[10],Non-toxic
COC(=O)[C@H](CCCNC(=N)N)NC(=O)[C@H](Cc1c[nH]c(C(C)(C)C)n1)NC(=O)OC(C)(C)C,IC50,[1],4.15 µg/mL
same,MIC,[2],> 200 µg/mL
same,MIC,[3],> 200 µg/mL
same,MIC,[5],> 200 µg/mL
same,IC50,[6],20.1 µg/mL
same,MIC,[7],> 200 µg/mL
same,MIC,[8],100 µg/mL
same,MIC,[9],200 µg/mL
same,Activity,[10],Non-toxic
COC(=O)[C@H](CCCNC(=N)N)NC(=O)[C@@H](N)Cc1c[nH]cn1 (H-His-Arg-OMe),IC50,[1],4.88 µg/mL
same,MIC,[2],> 200 µg/mL
same,MIC,[3],> 200 µg/mL
same,MIC,[5],> 200 µg/mL
same,IC50,[6],2.72 µg/mL
same,MIC,[7],> 200 µg/mL
same,MIC,[8],100 µg/mL
same,MIC,[9],50 µg/mL
same,Activity,[10],Non-toxic
COC(=O)[C@H](CCCNC(=N)N)NC(=O)[C@@H](N)Cc1c[nH]c(C2CCCCC2)n1,IC50,[1],20.9 µg/mL
same,MIC,[2],200 µg/mL
same,MIC,[3],> 200 µg/mL
same,IC50,[4],27.5 µg/mL
same,MIC,[5],> 200 µg/mL
same,IC50,[6],1.92 µg/mL
same,MIC,[7],> 200 µg/mL
same,MIC,[8],50 µg/mL
same,MIC,[9],10 µg/mL
same,Activity,[10],Non-toxic
CN[C@H](CC(C)C)C(=O)N[C@H]1C(=O)N[C@@H](CC(N)=O)C(=O)N[C@H]2C(=O)N[C@H]3C(=O)N[C@H](C(=O)N[C@H](C(=O)O)c4cc(O)cc(O)c4-c4cc3ccc4O)[C@H](O)c3ccc(c(Cl)c3)Oc3cc2cc(c3O[C@@H]2O[C@H](CO)[C@@H](O)[C@H](O)[C@H]2O[C@H]2C[C@](C)(N)[C@H](O)[C@H](C)O2)Oc2ccc(cc2Cl)[C@H]1O [VANCOMYCIN],IC50,[1],0.14 µg/mL
same,IC50,[6],0.14 µg/mL
CC(C)c1nc(C[C@H](NC(=O)[C@@H](N)Cc2c[nH]c3ccccc23)C(=O)NCc2ccccc2)c[nH]1,MIC,[2],> 200 µg/mL
same,MIC,[3],> 200 µg/mL
same,MIC,[5],> 200 µg/mL
same,IC50,[6],12.8 µg/mL
same,MIC,[7],> 200 µg/mL
same,MIC,[8],> 200 µg/mL
same,MIC,[9],100 µg/mL
same,Activity,[10],Non-toxic
